Data reported in a melting point compilation (Tetko et al.; mined from patent text by program, amines drawn as free bases though some values may be those of a salt).

Structure (SMILES) | melting point
CCN(CC)CCOc1ccc(Nc2ncc3c(n2)N(Cc2ccccc2)C(=O)N(c2c(Cl)cccc2Cl)C3)cc1 | 106 °C
CC(=O)Nc1cc2c(cc1[N+](=O)[O-])OC(C)O2 (stereo unspecified) | 112 to 113 °C
NS(=O)(=O)c1ccccc1C(Cl)Cl | 131 to 132 °C
NC(=O)NCCCCC1CCSS1 (stereo unspecified) | 110 to 113 °C
CCC(C)COc1ccc(-c2ccc(O)cc2)cc1 (stereo unspecified) | 80.5 °C
Cn1c(CC(=O)O)ccc1C(=O)c1cccs1 | 141 to 142 °C
CNc1cc(F)ccc1-c1c(C#N)n[nH]c1-c1ccc(S(C)(=O)=O)cc1 | 192 to 193 °C
CCCCCCCCCCCCOCC1CN(c2cc3c(cc2F)c(=O)c(C(=O)O)cn3CC)CCN1 (stereo unspecified) | 125 to 127 °C
COc1ccc2c(CBr)c(F)ccc2c1C(F)(F)F | 97 to 100 °C
Cc1c(-c2cnccn2)c(N2CC[C@H](N(C)C)C2)c2oc(C3CC3)nc2c1C#N | 157 to 159 °C
COC(=O)c1nsc(S)n1 | 126 to 127 °C
CCc1ccccc1C=C1CCN2Cc3ccccc3N=C12 | 224 to 225 °C
CN1C(=O)c2cc(Nc3ccccc3)c(Nc3ccccc3)cc2C1=O | 195 to 196 °C
Cn1c(=O)c2nc(-c3ccc(/C=C/C(=O)O)cc3)[nH]c2n(C)c1=O | 299 to 301 °C
O=C1c2ccccc2-n2cncc2[C@@H]2CCN12 | 195 to 197 °C
CC(C)(C)Nc1cc(N2CCNCC2)nc(NC(C)(C)C)n1 | 142 to 145 °C
CC(C)NNC(=O)OCc1ccccc1 | 61 to 62 °C
O=Cc1cnc(-c2ccccc2Cl)s1 | 95 to 97 °C
Cc1ccc(-c2cnn(-c3ccc(C)cc3)n2)cc1 | 98 to 99 °C
CCCCCCNC(=O)C=C(C)C=CC=C(C)C=Cc1c(C)cc(OC)c(C)c1C | 157 to 158 °C

Structure (SMILES) | melting point
CN(C)c1nc2ccccc2n2cnnc12 | 184 to 186 °C
CN1Cc2c(C#Cc3ccccc3Cl)ncn2-c2ccc(F)cc2C1=O | 259 to 261 °C
O=c1[nH]c(-c2ccccc2)cn1CCO | 203 to 205 °C
COc1cc(-c2nc3ccc(OCCCN4CCCCC4)cc3n2Cc2ccccc2)cc(OC)c1OC | 92 °C
CCCCCCCCCCCCCCCc1cc2c(C(=O)O)cccc2[nH]1 | 114 to 117 °C
CCCn1c(=O)c2c(nc(C=Cc3ccc(C(=O)O)cc3OC)n2C)n(CCC)c1=O | 285 to 286 °C
COCCCCCCCCCCC(=O)O | 31 to 32 °C
COc1ccc2c(c1)c(=O)c(S(=O)(=O)N(C)C)cn2C | 199 to 201 °C
COc1ccc(-n2c(SC)nc3cc(OC)cc(OC)c3c2=O)cc1 | 212 to 215 °C
CCCc1nc(C(C)(C)O)c(C(=O)OCOC(=O)C(C)(C)C)n1Cc1ccc(-c2ccccc2C(=O)OC(C)(C)C)cc1 | 106 to 107 °C
COC(=O)NC(=NS(=O)(=O)NC1CCCCC1)OC | 84 to 86 °C
CCn1c(=O)c2[nH]c(/C=C/c3ccc(OC)c(C)c3OC)nc2n(CC)c1=O | > 275 °C
Cc1c(F)c(N2CCC(N)C2)c(F)c2c1c(=O)c(C(=O)O)cn2C1CC1 (stereo unspecified) | > 300 °C
c1ccc2c(c1)N=C(N1CCNCC1)c1ccccc1S2 | 66 to 69 °C
CCC12CCC(=O)C=C1c1c(cc(OCC(=O)OCC(O)CO)c(Cl)c1Cl)C2 (stereo unspecified) | 135 to 138 °C
COC(=O)CCCCCCCCCCCCC1=C(C)C(=O)C(OC)=C(OC)C1=O | 54 °C
CC(C)[Si](C)(C)CCSCCNC(=O)n1cc(F)c(=O)[nH]c1=O | 85 to 86 °C
Cc1ccc(CS(=O)c2c(O)cc(C)oc2=O)cc1 (stereo unspecified) | 156 to 158 °C
Cc1cc(NC(=O)C(C)(C)C)n(C)n1 | 86 to 88 °C
Cc1ccc2[nH]c3c(cc(-c4ccc(O)cc4)c(=O)n3C)c2c1 | 186 °C

Structure (SMILES) | melting point
O=C(Nc1ccc(C(=O)N2CCCCc3sc(Cl)cc32)cc1)c1ccc(Cl)cc1Cl | 187 to 189 °C
COc1cc(Nc2c(C#N)cnc3cc(/C=C/C(=O)N4CCN(C)CC4)sc23)c(Cl)cc1Cl | 218 to 220 °C
CCCn1c(=O)c2[nH]c([C@@H]3CC[C@H]4CCC[C@H]43)nc2n(CCC)c1=S (relative stereo) | 135 to 137 °C
CCOC(=O)C(C#N)c1ncccc1[N+](=O)[O-] (stereo unspecified) | 133 to 134 °C
CCCn1cc2c(C3C(=O)Nc4ccc(Br)cc43)nc(NCCCN(C)C)nc2n1 (stereo unspecified) | 286 to 290 °C
Cc1cc2c(cc1CN1CCN(C)CC1)-c1[nH]nc(-c3ccsc3)c1C2 | 210 to 212 °C
Nc1ccc([N+](=O)[O-])cc1C(=O)c1ccccc1Cl | 138 to 139 °C
CCc1ccc(-c2ccccc2)cc1O | 62 to 65 °C
FC(F)(F)Oc1ccc(-n2cnc(-c3ccc(CBr)cc3)n2)cc1 | 124 to 126 °C
CN1CC(O)N(c2nnc(SCc3cccs3)s2)C1=O (stereo unspecified) | 129 to 132 °C
CCCCn1c(=O)n(C)c(=O)c2[nH]ncc21 | 160 to 162 °C
Cc1nnnn1-c1ccccc1S(N)(=O)=O | 141 to 148 °C
O=C(NCCc1cccc(-c2nc(=O)c3ccccc3s2)n1)c1ccccc1 | 202 to 203 °C
O=Cc1ccc(F)cc1-c1noc2ccc(F)cc12 | 165 to 166 °C
CCCNc1c(C#N)cnn1-c1ccc(OC(F)(F)F)cc1Cl | 63 °C
NCc1c(-c2ccc(Oc3ccccc3)cc2)c2c(N)ncnc2n1C1CCCC1 | 196 to 198 °C
CC(C)Sc1nc(-c2ccc(F)cc2)c(-c2ccncc2)[nH]1 | 263 to 264 °C
CCCCCCCCCCCCCCCCCCOC(=O)Cc1cc(C(C)(C)C)c(O)c(C)c1C | 79 to 81 °C

Other lines, results leading:

melting point | Structure (SMILES)
213 to 215 °C | Cc1cn(C)c2c1N(C(=O)C(C)N1CCCC1)c1ccccc1NC2=O (stereo unspecified)
134 °C | CCOC(=O)Cc1nn(CC2Nc3cc(C(F)(F)F)ccc3S2)c(=O)c2ccccc12 (stereo unspecified)
226 to 228 °C | O=C(NC1CCOc2cc(C(=O)Nc3ccncc3)ccc21)OCc1ccccc1 (stereo unspecified)
254 to 256 °C | CN(C(=O)c1ccc(Nc2nccc(Nc3ccc(C(F)(F)F)cc3)n2)cc1)C1CCOCC1
156 °C | CC(C)c1ccc(N(Cc2ccc(O)cc2)C(=O)C2CCCc3ccccc32)cc1 (stereo unspecified)
79 to 82 °C | Cc1cn(C(C)C(=O)Nc2ccccc2)nc1-c1ccccc1 (stereo unspecified)
163 to 165 °C | CCOC(=O)COc1ccc(C(=O)CN2CCN(c3ccncc3)CC2=O)cc1
324 to 326 °C | c1cc(-c2cc3nccnc3[nH]2)ccn1
155 to 157 °C | CCOC1Nc2c(ccc(C)c2O)C(=O)N2CCCC12 (stereo unspecified)
108 to 120 °C | COc1cc(C(=O)O)ccc1CNC(=O)C1Cc2ccccc2N1S(=O)(=O)c1ccc(-c2cccc(C(F)(F)F)c2)cc1 (stereo unspecified)
233 to 234 °C | Cn1c2sc(C(=O)O)cc2c2cccc(Cl)c21
99 to 112 °C | Cc1cc(C2(C(F)(F)F)ON=C(c3ccc(F)cc3)O2)ccc1NC(=O)c1cccc(I)c1C(=O)NC(C)C (stereo unspecified)
124 to 125 °C | CCC(=O)NC1=NN(c2ccccc2)C(c2ccc(C)cc2)C1 (stereo unspecified)
72 to 73 °C | CCOC(=O)Cc1c(Cl)nc(-c2ccccc2)n1Cc1ccccc1
176 to 183 °C | COC(=O)c1ccc(-c2ccc3c(c2)C=C(C(=O)Nc2ccc(CN(C)C4CCOCC4)cc2)CCC3)cc1
142 to 145 °C | CNCCN1C(=O)[C@H](O)[C@H](c2ccc(OC)cc2)Sc2cc(Cl)ccc21
229 to 231 °C | COc1ccc2c(c1)S(=O)c1nccnc1N2C (stereo unspecified)
119 to 124 °C | CC(C)(C)OC(=O)N1CCc2c(n(CCCc3ccccc3)c3cc(Cl)c(Cl)cc23)CC1
82 to 83 °C | CCOC(=O)C1=C(C)NC(C(OCC)OCC)=C(C(=O)OCC)C1c1ccccc1C(F)(F)F (stereo unspecified)
143 to 146 °C | CC(=O)Oc1cccc2c1N=CC1CCCN1C2=O (stereo unspecified)
111 °C | CCSc1cccc(OC(F)(F)F)c1S(=O)(=O)NC(=O)c1noc(C)n1
103 °C | Cc1ccc(S(=O)(=O)N2CCCC2c2ccc(Cl)c(C)c2)cc1 (racemic)

melting point | Structure (SMILES)
89 to 90 °C | COC(=O)Cc1ccc(C2=CC(=O)c3ccccc3C2=O)n1C
67 to 69 °C | COC(=O)CCC(=NOCc1ccc(OCc2nc(-c3ccco3)oc2C)c(OC)c1)c1ccccc1
160 to 162 °C | COc1cc(C(=O)NCC2c3ccccc3CC(C)N2C(=O)c2ccccc2)cc(OC)c1OC (stereo unspecified)
160 °C | CC(C)OC(=O)N1Cc2c(-c3ccc(F)cc3)ncn2-c2ccccc21
204 to 205 °C | COC(=O)Nc1nccc(Oc2ccc3c(C(=O)Nc4ccc(F)c(C(F)(F)F)c4)cccc3c2)n1
160 to 163 °C | FC(F)(F)c1cccc(-c2ccnc3nccn23)c1
100 to 110 °C | Cc1cc(Nc2ccnc(Nc3ccc(C(=O)N(C)C4CCCN(CCCC(F)(F)F)C4)cc3)n2)ccc1F (stereo unspecified)
170 to 172 °C | NC(=O)[C@H]1CCc2[nH]c3ccc(F)cc3c2C1
192 to 193 °C | Cc1sc(N2C(=O)OCC2(C)C)nc1-c1ccc(C#N)cc1
177 to 179 °C | CCC1(c2ccccc2)Cc2cc(O)c(Cl)c(Cl)c2C1=O (stereo unspecified)
221 to 224 °C | COc1nc(-c2ccccc2)c2c(n1)N(c1c(F)cccc1F)C(=O)NC2
210 to 211 °C | COc1ccc(-c2ccc(C(=O)Nc3ccc4nc(CN5C(C)(C)CCCC5(C)C)ccc4c3)cc2)cc1
110 to 117 °C | Cc1ccc2c(c1)c(N1CCN(C(=O)c3cccs3)CC1)c(C#N)c(=O)n2CCN(C)C
142 to 146 °C | O=C(CC1(c2ccccc2)CCC1)C(=O)Nc1ccc2c(c1)COC2=O
138 to 139 °C | Cn1cc(C(=O)c2ccccn2)cc1C(=O)c1ccc(Cl)cc1
> 300 °C | O=C1c2ccccc2C(=O)N1CCCOc1cccc2c(O)nccc12
188 to 193 °C | CNCC1COC2(CCN(c3nc4c(cc3F)C=C(C(=O)O)CN4c3ccc(F)cc3F)CC2)O1 (stereo unspecified)
199 to 201 °C | COC(=O)C1=C(C)Nc2nccn2C1c1cccc(C2(C)OCCO2)c1 (stereo unspecified)
112 to 113 °C | CNC(=O)N(C=O)c1cccc(C)c1
105 °C | Cn1nnc(-c2cccc([N+](=O)[O-])c2)n1
115 °C | COc1ccc2c(-c3ccccc3)c(C(=O)c3ccc(Cl)cc3)sc2c1
